Measurements reported in patent US20210179632A1, “THIENOPIPERIDINE DERIVATIVE AND USE THEREOF” (JIANGSU TASLY DIYI PHARMACEUTICAL CO. LTD., priority 2013, published 2021).

System: platelet aggregation induced by ADP
Assay: Platelet aggregation induced by ADP in platelet-rich plasma of rats drawn 2 hours after dosing (NJ4 Semi-Platelet Aggregation Analyzer)
Format: in vivo
Conditions: male Wistar rats, 3 mg/kg as suspension in 0.25 wt % CMC, blood drawn 2 hours after administration, negative control 61.22 ± 4.73, * P < 0.001
Excerpt: The maximum aggregation rate of irreversible condensed phase can be used to evaluate the effect of subject products on coagulation function. The experiment used NJ4 type Semi-Platelet Aggregation Analyzer of precil company, to survey the inhibitory effect of the subject products provided by Tasly Holding Group. Co. Ltd on platelet aggregation. • Materials • Animals: male Wistar rats, body weight 230-250 g, bought from Beijing Vital River Laboratory • Animal Technology Co. Ltd., animal certification number:SCXK ( ? ) 2007-0001. • Reagents: ADP, bought from Sigma company; clopidogrel was prepared referring to the method in Chinese Journal of Medicinal Chemistry 2007, 17 (3) 163-165; prasugrel was prepared referring to the method in Chinese Journal of Pharmaceuticals 2012, 43 (8) 647-649; vicagrel was prepared referring to the method in Journal of Medicinal Chemistry, 2012, 55(7), 3342-3352. • Subject products: 7 subject products were all provided by Tasly Holding Group. Co. Ltd. • Administration dosage: subject products were suspensed in CMC in a concentration of 0.25 wt %, were administered in a dosage of 3 mg/kg body weight, the administration volume was 2 ml.
2 hours after administering drugs to the rats, anesthesia with mebubarbital, draw blood from abdominal aorta, anticoagulation with sodium citrate 1:9. Obtained platelet-rich plasma and platelet-poor plasma by centrifugation, the volume ratio of the two was platelet-poor plasma:platelet-rich plasma=3:1.

SMILES	The maximum aggregation rate of platelet irreversible condensed phase
COC(=O)[C@H](c1ccccc1Cl)N1CCc2sc(OP(=O)(OC)OC)cc2C1 [TSC-1]	45.8 ± 3.55*
CCOP(=O)(OCC)Oc1cc2c(s1)CCN([C@H](C(=O)OC)c1ccccc1Cl)C2 [TSC-2]	41.7 ± 7.43*
COC(=O)[C@H](c1ccccc1Cl)N1CCc2sc(OC(C)=O)cc2C1 [Vicagrel, vicagrel, reference compound]	32.36 ± 5.14*
CC(=O)Oc1cc2c(s1)CCN(C(C(=O)C1CC1)c1ccccc1F)C2 (stereo not drawn) [Prasugrel, prasugrel, reference compound]	20.72 ± 18.84*
COC(=O)[C@H](c1ccccc1Cl)N1CCc2sc(OP(=O)(OCC(Cl)(Cl)Cl)OCC(Cl)(Cl)Cl)cc2C1 [TSC-5]	39.1 ± 5.66*
COC(=O)[C@H](c1ccccc1Cl)N1CCc2sc(OCOP(=O)(O)O)cc2C1 [TSC-8]	32.7 ± 9.21*
COC(=O)[C@H](c1ccccc1Cl)N1CCc2sccc2C1 [Clopidogrel, reference compound]	46.77 ± 8.28*
COC(=O)[C@H](c1ccccc1Cl)N1CCc2sc(OCOP(=O)(OC(C)(C)C)OC(C)(C)C)cc2C1 [TSC-7]	39.2 ± 6.16*
COC(=O)[C@H](c1ccccc1Cl)N1CCc2sc(OS(=O)(=O)O)cc2C1 [TSC-9]	25.7 ± 3.25*
COC(=O)[C@H](c1ccccc1Cl)N1CCc2sc(OP(=O)(OC(C)C)OC(C)C)cc2C1 [TSC-3]	38.7 ± 4.27*
COC(=O)[C@H](c1ccccc1Cl)N1CCc2sc(OP(=O)(Oc3ccccc3)Oc3ccccc3)cc2C1 [TSC-4]	46.5 ± 8.16*
COC(=O)[C@H](c1ccccc1Cl)N1CCc2sc(OP(=O)(O)O)cc2C1 [TSC-6]	29.6 ± 5.33*
